This is an account of results in US4624955A, “6H-isoxazolo[3,4-d]pyrazolo[3,4-b]pyridines, method for their preparation and use as anxiolytic agents” (Hoechst-Roussel Pharmaceuticals, priority 1985, dated 1986).

For the assay, the target named is benzodiazepin recognition sites in a membrane preparation from rat brain. The assay can be described thus: 3H-Flunitrazepam binding (displacement from benzodiazepine recognition sites; anxiolytic activity). Also noted: species or system rat (male Wistar). The settings on record: rat cerebral cortex membranes; 2 nM 3H-flunitrazepam; pH 6.9; 20 minutes at 0-4 °C; log-probit analysis.

A word on the IC50: it is the concentration at which inhibition is half-maximal. The low end stands for greater potency in that assay, the high end for weaker potency in that assay.

Molecule `CCn1ncc2c3noc(-c4cccc(Cl)c4)c3cnc21` [3-(3-Chlorophenyl)-6-ethyl-6H-isoxazolo[3,4-d]pyrazolo[3,4-b]pyridine] registered an IC50 of 4400 nM.
Then `CCn1ncc2c3noc(-c4ccc(Cl)cc4)c3cnc21` [3-(4-Chlorophenyl)-6-ethyl-6H-isoxazolo[3,4-d]pyrazolo[3,4-b]pyridine], with 400 nM; and `CCn1ncc2c3noc(-c4ccccc4OC)c3cnc21` [6-Ethyl-3-(2-methoxyphenyl)-6H-isoxazolo[3,4-d]pyrazolo[3,4-b]pyridine], with 2000 nM; and `CCn1ncc2c3noc(-c4cccc(F)c4)c3cnc21` [6-Ethyl-3-(3-fluorophenyl)-6H-isoxazolo[3,4-d]pyrazolo[3,4-b]pyridine], with 2300 nM.
The value for `CCn1ncc2c3noc(-c4ccc(F)cc4)c3cnc21` [6-Ethyl-3-(4-fluorophenyl)-6H-isoxazolo[3,4-d]pyrazolo[3,4-b]pyridine] was 530 nM; that for `CCn1ncc2c3noc(-c4ccc(OC)cc4)c3cnc21` [6-Ethyl-3-(4-methoxyphenyl)-6H-isoxazolo[3,4-d]pyrazolo[3,4-b]pyridine] was 1200 nM; that for `CCn1ncc2c3noc(-c4ccc(C)cc4)c3cnc21` [6-Ethyl-3-(4-tolyl)-6H-isoxazolo[3,4-d]pyrazolo[3,4-b]pyridine] was 990 nM.
The value for `CCn1ncc2c3noc(-c4ccccc4)c3cnc21` [6-Ethyl-3-phenyl-6H-isoxazolo[3,4-d]pyrazolo[3,4-b]pyridine] was 470 nM.
In turn, `CNC1=Nc2ccc(Cl)cc2C(c2ccccc2)=[N+]([O-])C1` [Chlordiazepoxide, reference compound] had an IC50 of 340 nM.
